Measurements as given in US20110190280A1, “Thiazole And Oxazole Kinase Inhibitors” (priority 2007, published 2011).
Counter-ions that a name gives are not always drawn.

Legend:
[1] = system: A375P tumor cells; experiment: Cell growth inhibition assay (CellTiter-Glo), A375P; settings: Homo sapiens, 72 h, read-out: Activity in A375P Tumor Cells;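 note: total ATP luminescence used as proxy for cell number, serial threefold compound dilutions at 0.2% DMSO, growth inhibition expressed versus DMSO vehicle-treated wells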
[2] = target: ErbB2 (Homo sapiens, UniProt P04626); experiment: ErbB2 kinase autophosphorylation assay (peptide phosphorylation, HTRF); assay type: biochemical; settings: 10 nM ErbB2, HTRF; class by pIC50
Chain of ErbB2 (P04626 23-1255): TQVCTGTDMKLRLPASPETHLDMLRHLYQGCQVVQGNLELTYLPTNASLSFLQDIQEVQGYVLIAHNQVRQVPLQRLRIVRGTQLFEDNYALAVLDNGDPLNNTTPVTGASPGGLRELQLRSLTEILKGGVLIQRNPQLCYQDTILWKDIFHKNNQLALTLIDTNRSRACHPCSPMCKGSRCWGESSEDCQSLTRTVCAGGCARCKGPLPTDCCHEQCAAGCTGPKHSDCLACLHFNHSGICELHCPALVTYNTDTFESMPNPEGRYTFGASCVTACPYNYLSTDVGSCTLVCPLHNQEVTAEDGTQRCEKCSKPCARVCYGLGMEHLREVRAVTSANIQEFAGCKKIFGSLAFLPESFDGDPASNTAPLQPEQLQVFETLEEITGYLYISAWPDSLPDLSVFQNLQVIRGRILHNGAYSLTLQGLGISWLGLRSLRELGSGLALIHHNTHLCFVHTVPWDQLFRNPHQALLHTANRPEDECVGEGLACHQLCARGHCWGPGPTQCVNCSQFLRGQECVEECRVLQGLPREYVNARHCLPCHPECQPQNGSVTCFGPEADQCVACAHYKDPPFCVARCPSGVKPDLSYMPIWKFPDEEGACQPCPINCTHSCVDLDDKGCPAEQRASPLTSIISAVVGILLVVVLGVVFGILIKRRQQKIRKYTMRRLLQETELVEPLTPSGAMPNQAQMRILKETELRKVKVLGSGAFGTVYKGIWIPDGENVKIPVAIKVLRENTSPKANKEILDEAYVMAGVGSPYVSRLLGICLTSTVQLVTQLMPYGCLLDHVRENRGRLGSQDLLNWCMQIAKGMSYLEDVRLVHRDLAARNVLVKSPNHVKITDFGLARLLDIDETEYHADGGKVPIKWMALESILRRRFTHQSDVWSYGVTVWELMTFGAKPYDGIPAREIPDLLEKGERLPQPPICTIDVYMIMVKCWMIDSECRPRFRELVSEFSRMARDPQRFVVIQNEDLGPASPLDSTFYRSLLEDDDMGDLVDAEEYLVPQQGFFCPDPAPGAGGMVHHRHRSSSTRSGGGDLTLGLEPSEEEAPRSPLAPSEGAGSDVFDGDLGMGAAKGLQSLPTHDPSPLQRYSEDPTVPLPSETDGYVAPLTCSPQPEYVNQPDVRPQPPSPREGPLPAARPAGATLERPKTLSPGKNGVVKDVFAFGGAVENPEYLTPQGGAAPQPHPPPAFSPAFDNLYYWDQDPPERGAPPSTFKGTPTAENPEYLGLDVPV
Description: (§1) A selection of compounds of the present invention were tested for inhibitory activity against EGFR and ErbB2 kinases in autophosphorylation assays.
(§2) The method measures the ability of the isolated enzyme to catalyse the transfer of the gamma-phosphate from ATP onto the tyrosine residue of a biotinylated synthetic peptide referenced “Peptide C” in Brignola, P. S., et al, (2002) J. Biol. Chem. 277(2):1576-1585. The extent of tyrosine phosphorylation was measured using an anti-phosphotyrosine antibody, and quantified by homogenous time-resolved fluorescence (HTRF).
(§3) Reactions were performed in black 384-well polystyrene flat-bottom plates in a final volume of 20 ul. Assays were performed by adding 10 μl of each of the following solutions, substrate Mix and enzyme mix: The Substrate mix contained 100 mM 3-[N-morpholino]propanesulfonic acid (MOPS) (pH 7.5), 2 mM MnCl2, 20 μM ATP, 0.01% Tween-20, 0.1 mg/mL (BSA), 0.8 uM peptide substrate, and 1 mM dithiothreitol. The enzyme mix contained 100 mM MOPS (pH7.5); 0.01% Tween-20; 0.1 mg/mL BSA, and either 0.8 nM EGFR, 10 nM ErbB2, or 1 nM ErbB4
(§4) The enzyme mix was added to the compound plates and the plates were incubated at 20° C. for 1 hour. The reactions were allowed to proceed for 90 minutes at 20° C. The reactions were then terminated by the addition of 20 μl 100 mM EDTA to each well. 40 μl/well of HTRF detection mix were added to the assay plates. The final concentrations of the detection reagents were: 100 mM HEPES (pH7.5), 0.1 mg/mL BSA, 15 nM streptavidin-labeled allophycocyanin (PerkinElmer), and 1 nM europium-labeled anti-phosphotyrosine antibody (PerkinElmer). Assay plates were left unsealed and were counted in a Wallac Multilabel Counter 1420 (PerkinElmer).
(§5) Compounds under analysis were dissolved in Me2SO to 1.0 mM and serially diluted 1 to 3 with Me2SO through twelve dilutions. 1 μl of each concentration was transferred to the corresponding well of an assay plate. This creates a final compound concentration range from 0.00027 to 47.6 μM.
(§6) The data for dose responses were plotted as % Inhibition calculated with the data reduction formula 100*(1−(U1−C2)/(C1−C2)) versus concentration of compound where U is the unknown value, C1 is the average control value obtained for 4.76% DMSO, and C2 is the average control value obtained for 0.035 M EDTA. Data were fitted with a curve described by:
(§7) where Vmax is the upper asymptote, Y2 is the Y intercept, and K is the IC50. The results for each compound were recorded as pIC50s, calculated as follows: […]
(§8) In the following table: • “+” indicates no pIC50 measurement greater than 6 against EGFR or ErbB2, • “++” indicates at least one pIC50 measurement greater than 6 against EGFR or ErbB2 but no measurement greater than pIC50 of 7; and • “+++” indicates at least one pIC50 measurement of greater than 7 against EGFR or ErbB2.

[3] = target: B-Raf (Homo sapiens, UniProt P15056); experiment: B-Raf Accelerated MEK ATPase assay (BRAMA); assay type: biochemical; settings: BRAMA enzyme assay; class by pIC50; read-out: B-Raf Activity
Chain of B-Raf (P15056 whole entry): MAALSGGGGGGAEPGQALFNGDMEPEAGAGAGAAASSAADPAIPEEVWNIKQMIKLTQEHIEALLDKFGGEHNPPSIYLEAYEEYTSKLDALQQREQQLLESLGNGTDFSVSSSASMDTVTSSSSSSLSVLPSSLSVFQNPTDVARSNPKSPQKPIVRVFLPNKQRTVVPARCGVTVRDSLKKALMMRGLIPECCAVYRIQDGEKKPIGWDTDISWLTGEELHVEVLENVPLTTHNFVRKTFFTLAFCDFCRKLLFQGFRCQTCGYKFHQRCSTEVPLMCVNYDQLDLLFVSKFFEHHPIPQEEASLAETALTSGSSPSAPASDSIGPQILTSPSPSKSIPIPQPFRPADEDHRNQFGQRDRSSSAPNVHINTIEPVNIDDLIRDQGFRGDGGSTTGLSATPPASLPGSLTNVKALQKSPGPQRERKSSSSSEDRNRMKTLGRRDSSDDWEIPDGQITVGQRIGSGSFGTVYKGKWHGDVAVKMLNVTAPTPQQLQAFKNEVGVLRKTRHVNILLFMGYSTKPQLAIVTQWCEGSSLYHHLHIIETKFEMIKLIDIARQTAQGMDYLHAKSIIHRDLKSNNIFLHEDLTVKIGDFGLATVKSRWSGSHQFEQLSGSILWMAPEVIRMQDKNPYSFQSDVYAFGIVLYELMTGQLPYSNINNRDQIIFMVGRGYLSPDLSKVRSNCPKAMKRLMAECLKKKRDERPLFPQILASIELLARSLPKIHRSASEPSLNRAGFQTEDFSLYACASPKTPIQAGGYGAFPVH
Outline: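 B-Raf activity read as intrinsic MEK ATPase: catalytic activated RAF with non-phosphorylated MEK drives ADP formation, coupled through pyruvate kinase and lactate dehydrogenase to NADH oxidation, independent of ERK phosphorylation.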

[4] = system: Colo205 tumor cells; experiment: Cell growth inhibition assay (CellTiter-Glo), Colo205; settings: Homo sapiens, COLO 205, 72 h, read-out: Activity in Colo205 Tumor Cells;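 note: growth measured via total ATP luminescence (CellTiter-Glo) as a proxy for cell number, inhibition expressed against DMSO-treated control wells, 3-day exposure at 0.2% final DMSO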
[5] = system: HT-29 tumor cells; experiment: Cell growth inhibition assay (CellTiter-Glo), HT-29; settings: Homo sapiens, HT-29, 72 h, read-out: Activity in HT-29 Tumor Cells;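 note: ATP content read by luminescence as proxy for cell number, growth inhibition versus DMSO vehicle wells, 0.2% DMSO final, nine serial threefold compound dilutions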
[6] = system: SK-MEL-3 tumor cells; experiment: Cell growth inhibition assay (CellTiter-Glo), SK-MEL-3; settings: Homo sapiens, SK-MEL3, 72 h, read-out: Activity in SK-MEL-3 Tumor Cells;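 note: human melanoma cells grown with compound for 3 days in 0.2% DMSO, total ATP read by luminescence as proxy for cell number, growth inhibition versus DMSO-treated wells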
Description: Cell Growth Inhibition Assays Human colon tumor cells (Colo205) were cultured in RPMI (Mediatech 50-020-PB) containing 10% FBS and 1% penicillin-streptomycin. […] Human melanoma cancer cells (A375-F11S) were cultured in RPMI (Mediatech 50-020-PB) containing 10% FBS, 1% sodium pyruvate, and 1% penicillin-streptomycin. Human colon cancer cells (HT-29) were cultured in high glucose DMEM (Mediatech 50-013-PB) containing 10% FBS and 1% penicillin-streptomycin. Human melanoma cancer cells (SK-MEL-3) were cultured in McCoy's 5A (50-025-PB) containing 15% FBS, and 1% penicillin-streptomycin. All cell lines were maintained at 37° C. in a humidified 5% CO2, 95% air incubator.
The next day, compounds were diluted as follows: For 96-well assays, 13.5 μl of compound in DMSO were diluted using nine (9) serial 1:3 dilutions of 4.5 μl in 9 μl of DMSO. Medium (270 μl/well of RPMI with 10% FBS and 1% penicillin-streptomycin) was added to the plates. Aliquots (7 μl) were added to cells in the final assay giving a final DMSO concentration of 0.2%. For 384-well assays, 15 μl of compound in DMSO were diluted using nine (9) serial 1:3 dilutions of 5 μl in 10 μl of DMSO, followed by a further dilution of 5 μl of compound with 95 μl of medium, of which 2 μl are added to cells in the final assay giving a final DMSO concentration of 0.2%. Cells were incubated at 37° C., 5% CO2 for 3 days.
Total ATP was measured (as a surrogate estimate of cell number) using CellTiter-Glo® (Promega G7571) reagent. Briefly, plates were removed from the incubator and allowed to equilibrate to room temperature for 30 minutes. CellTiter-Glo® (25 μl or 55 μl for 384-well or 96-well assays, respectively) reagent was added to each well and plates were shaken on an orbital plate shaker for 2 minutes. Plates were incubated without shaking for a further 30 minutes and read on an LJL Analyst GT reader in luminometer mode with an integration time of 0.5 seconds per well. Percent inhibition of cell growth was calculated relative to DMSO vehicle-treated control wells.

[7] = target: EGFR (Homo sapiens, UniProt P00533); experiment: EGFR kinase autophosphorylation assay (peptide phosphorylation, HTRF); assay type: biochemical; settings: 0.8 nM EGFR, class by pIC50
Chain of EGFR (P00533 25-1210): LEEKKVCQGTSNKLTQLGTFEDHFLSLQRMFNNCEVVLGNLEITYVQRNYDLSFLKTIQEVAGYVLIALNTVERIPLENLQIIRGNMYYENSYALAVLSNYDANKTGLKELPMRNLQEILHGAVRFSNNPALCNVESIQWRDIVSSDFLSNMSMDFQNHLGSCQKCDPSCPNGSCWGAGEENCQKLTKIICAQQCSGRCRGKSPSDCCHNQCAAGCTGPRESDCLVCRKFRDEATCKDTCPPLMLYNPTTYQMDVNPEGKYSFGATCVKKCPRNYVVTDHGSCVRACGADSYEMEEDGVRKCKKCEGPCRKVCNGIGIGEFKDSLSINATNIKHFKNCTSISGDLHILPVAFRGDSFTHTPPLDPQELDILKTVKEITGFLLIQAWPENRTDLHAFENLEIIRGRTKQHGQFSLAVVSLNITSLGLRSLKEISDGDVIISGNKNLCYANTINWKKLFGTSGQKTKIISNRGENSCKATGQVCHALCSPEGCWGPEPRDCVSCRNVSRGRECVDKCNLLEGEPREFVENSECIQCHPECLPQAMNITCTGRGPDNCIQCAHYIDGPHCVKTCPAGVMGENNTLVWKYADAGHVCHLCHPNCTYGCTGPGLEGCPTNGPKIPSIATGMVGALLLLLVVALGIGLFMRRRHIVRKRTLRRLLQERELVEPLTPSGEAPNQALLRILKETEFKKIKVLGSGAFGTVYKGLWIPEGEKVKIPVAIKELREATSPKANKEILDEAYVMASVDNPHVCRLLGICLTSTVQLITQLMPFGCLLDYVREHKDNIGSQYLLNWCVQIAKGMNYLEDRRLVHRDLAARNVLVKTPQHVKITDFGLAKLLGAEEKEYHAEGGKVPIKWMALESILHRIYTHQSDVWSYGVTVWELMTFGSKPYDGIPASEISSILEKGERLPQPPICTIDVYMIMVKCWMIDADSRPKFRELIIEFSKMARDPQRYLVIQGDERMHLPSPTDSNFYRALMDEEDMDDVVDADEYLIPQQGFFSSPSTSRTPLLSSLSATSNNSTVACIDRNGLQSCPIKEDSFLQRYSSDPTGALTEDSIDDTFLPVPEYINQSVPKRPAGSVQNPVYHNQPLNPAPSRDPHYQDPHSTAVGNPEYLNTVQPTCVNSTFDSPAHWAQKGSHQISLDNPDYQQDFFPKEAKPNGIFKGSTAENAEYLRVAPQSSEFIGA
Description: as §1, §2, §3, §4, §5, §6, §7, §8

[8] = system: SK-MEL-28 tumor cells; experiment: Cell growth inhibition assay (CellTiter-Glo), SK-MEL-28; settings: Homo sapiens, SK-MEL-28, 72 h, read-out: Activity in SK-MEL-28 Tumor Cells;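 note: luminescent total ATP as a proxy for cell number, threefold serial dilutions at 0.2% DMSO, percent growth inhibition versus DMSO vehicle control wells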

| Structure (SMILES) | IC50 [1] [nM] | IC50 [2] [nM] | IC50 [3] [nM] | IC50 [4] [nM] | IC50 [5] [nM] | IC50 [6] [nM] | IC50 [7] [nM] | IC50 [8] [nM] |
| --- | --- | --- | --- | --- | --- | --- | --- | --- |
| CCNc1nc(-c2cc(OC)cc(OC)c2)c(-c2ccnc(Nc3ccc(N4CCN(C(C)=O)CC4)nc3)n2)s1 [Example 4, N-[6-(4-Acetyl-1-piperazinyl)-3-pyridinyl]-4-[4-[3,5-bis(methyloxy)phenyl]-2-(ethylamino)-1,3-thiazol-5-yl]-2-pyrimidinamine] | < 500 | > 1000 | < 100 | < 500 | < 500 | < 500 | > 1000 | < 500 |
| CCNc1nc(-c2cccc(O)c2)c(-c2ccnc(Nc3ccc(OCCN4CCCC4)c(Cl)c3)n2)s1 [Example 44] | < 500 | < 100 | < 100 | < 500 | < 500 | < 500 | < 100 | < 500 |
| CCNc1nc(-c2cc(C)cc(OC)c2)c(-c2ccnc(Nc3ccc(N4CCS(=O)(=O)CC4)nc3)n2)s1 [Example 34, N-[6-(1,1-Dioxido-4-thiomorpholinyl)-3-pyridinyl]-4-{2-(ethylamino)-4-[3-methyl-5-(methyloxy)phenyl]-1,3-thiazol-5-yl}-2-pyrimidinamine] | < 500 | > 1000 | < 100 | < 500 | < 500 | < 500 | > 1000 | < 500 |
| CCNc1nc(-c2cccc(Cl)c2)c(-c2ccnc(Nc3ccc(OCCN(C)C)c(Cl)c3)n2)s1 [Example 46, N-(3-Chloro-4-{[2-(dimethylamino)ethyl]oxy}phenyl)-4-[4-(3-chlorophenyl)-2-(ethylamino)-1,3-thiazol-5-yl]-2-pyrimidinamine] | < 500 | < 100 | < 100 | < 500 | < 500 | < 500 | < 100 | < 500 |
| CCNc1nc(-c2cccc(OC)c2)c(-c2ccnc(Nc3ccc(OCCN4CCCC4)c(F)c3)n2)s1 [Example 72, 4-{2-(Ethylamino)-4-[3-(methyloxy)phenyl]-1,3-thiazol-5-yl}-N-(3-fluoro-4-{[2-(1-pyrrolidinyl)ethyl]oxy}phenyl)-2-pyrimidinamine] | < 500 | < 100 | < 100 | < 500 | < 500 | < 500 | < 100 | 500 to 5000 |
| CCNc1nc(-c2cc(C)cc(OC)c2)c(-c2ccnc(Nc3ccc4c(c3)CCN4C(C)=O)n2)s1 [Example 30, 1-Acetyl-N-(4-{2-(ethylamino)-4-[3-methyl-5-(methyloxy)phenyl]-1,3-thiazol-5-yl}-2-pyrimidinyl)-2,3-dihydro-1H-indol-5-amine] | < 500 | > 1000 | < 100 | < 500 | < 500 | < 500 | > 1000 | < 500 |
| COc1cc(C)cc(-c2nc(CNS(C)(=O)=O)sc2-c2ccnc(Nc3ccc(N4CCN(C(C)=O)CC4)nc3)n2)c1 [Example 64, N-({5-(2-{[6-(4-Acetyl-1-piperazinyl)-3-pyridinyl]amino}-4-pyrimidinyl)-4-[3-methyl-5-(methyloxy)phenyl]-1,3-thiazol-2-yl}methyl)methanesulfonamide] | < 500 | > 1000 | < 100 | < 500 | < 500 | < 500 | > 1000 | < 500 |
| CCNc1nc(-c2cc(OC)cc(OC)c2)c(-c2ccnc(Nc3ccc(OC4CCN(CCO)CC4)c(F)c3)n2)o1 [Example 124] | 500 to 5000 | > 1000 | < 100 | 500 to 5000 | < 500 | < 500 | > 1000 | 500 to 5000 |
| CCNc1nc(-c2cc(C)cc(OC)c2)c(-c2ccnc(Nc3ccc(N4CCN(CCF)CC4)c(F)c3)n2)s1 [Example 29, 4-{2-(Ethylamino)-4-[3-methyl-5-(methyloxy)phenyl]-1,3-thiazol-5-yl}-N-{3-fluoro-4-[4-(2-fluoroethyl)-1-piperazinyl]phenyl}-2-pyrimidinamine] | < 500 | > 1000 | < 100 | < 500 | < 500 | < 500 | > 1000 | < 500 |
| CCc1nc(-c2cc(O)cc(OC)c2)c(-c2ccnc(Nc3ccc(OC4CCN(CCS(C)(=O)=O)CC4)c(F)c3)n2)s1 [Example 74, trifluoroacetic acid salt] | < 500 | > 1000 | < 100 | < 500 | < 500 | < 500 | > 1000 | < 500 |
| CCNc1nc(-c2cc(OC)cc(OC)c2)c(-c2ccnc(Nc3ccc(N4CCOCC4)c(F)c3)n2)s1 [Example 7, 4-[4-[3,5-Bis(methyloxy)phenyl]-2-(ethylamino)-1,3-thiazol-5-yl]-N-[3-fluoro-4-(4-morpholinyl)phenyl]-2-pyrimidinamine] | 500 to 5000 | > 1000 | < 100 | < 500 | < 500 | < 500 | > 1000 | < 500 |
| COc1cc(C)cc(-c2nc(C(C)C)sc2-c2ccnc(Nc3ccc(N4CCN(C(C)=O)CC4)nc3)n2)c1 [Example 63, N-[6-(4-Acetyl-1-piperazinyl)-3-pyridinyl]-4-{2-(1-methylethyl)-4-[3-methyl-5-(methyloxy)phenyl]-1,3-thiazol-5-yl}-2-pyrimidinamine] | < 500 | > 1000 | < 100 | < 500 | < 500 | < 500 | > 1000 | < 500 |
| CCNc1nc(-c2cc(C)cc(OC)c2)c(-c2ccnc(Nc3ccc(N4CCN(C(=O)COC)CC4)nc3)n2)s1 [Example 37, 4-{2-(Ethylamino)-4-[3-methyl-5-(methyloxy)phenyl]-1,3-thiazol-5-yl}-N-(6-{4-[(methyloxy)acetyl]-1-piperazinyl}-3-pyridinyl)-2-pyrimidinamine] | < 500 | > 1000 | < 100 | < 500 | < 500 | < 500 | > 1000 | < 500 |
| CCNc1nc(-c2cc(OC)cc(OC)c2)c(-c2ccnc(Nc3cc(F)c(N4CCN(CCS(C)(=O)=O)CC4)c(F)c3)n2)o1 [Example 91] | 500 to 5000 | > 1000 | < 100 | < 500 | 500 to 5000 | < 500 | > 1000 | 500 to 5000 |
| CCc1nc(-c2ccc(CO)c(OC)c2)c(-c2ccnc(Nc3ccc(N4CCN(C(C)=O)CC4)nc3)n2)s1 [Example 55] | < 500 | > 1000 | < 100 | < 500 | < 500 | < 500 | > 1000 | < 500 |
